Test results taken from US20210363213A1, “GLUCAGON-GLP-1-GIP TRIPLE AGONIST COMPOUNDS” (priority 2013, published 2021).
Peptide text beside a SMILES is read from it.

target: T1, human GIP R (Homo sapiens, UniProt P48546); assay: Human GIP receptor (GIP-R) activity assay, cAMP induction (AlphaScreen) in HEK293 cells; assay type: cell-based; conditions: not given
T1 construct: expressed in transfected cells
T1 sequence (P48546 22-466): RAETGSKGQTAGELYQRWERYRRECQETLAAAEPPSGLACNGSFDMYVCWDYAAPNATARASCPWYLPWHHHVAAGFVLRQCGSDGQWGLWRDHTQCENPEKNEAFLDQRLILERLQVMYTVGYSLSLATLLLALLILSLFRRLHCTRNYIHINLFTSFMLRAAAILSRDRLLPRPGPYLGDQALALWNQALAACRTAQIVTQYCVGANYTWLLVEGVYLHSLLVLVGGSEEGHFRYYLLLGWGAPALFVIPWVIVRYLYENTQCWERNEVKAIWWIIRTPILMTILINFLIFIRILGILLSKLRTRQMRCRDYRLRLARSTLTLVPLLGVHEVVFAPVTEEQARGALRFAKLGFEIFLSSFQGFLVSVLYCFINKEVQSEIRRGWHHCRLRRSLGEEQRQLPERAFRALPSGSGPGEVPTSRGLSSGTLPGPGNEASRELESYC

SMILES	EC50
CC(C)C[C@H](NC(=O)[C@H](CC(C)C)NC(=O)[C@H](Cc1c[nH]c2ccccc12)NC(=O)[C@H](CCC(=O)O)NC(=O)[C@@H](NC(=O)[C@H](Cc1ccccc1)NC(=O)[C@H](CC(=O)O)NC(=O)[C@H](CCCNC(=N)N)NC(=O)[C@H](C)NC(=O)[C@H](C)NC(=O)[C@H](CCCCN)NC(=O)[C@H](CO)NC(=O)[C@H](CC(=O)O)NC(=O)[C@H](CC(C)C)NC(=O)[C@H](Cc1ccc(O)cc1)NC(=O)[C@H](CCCCN)NC(=O)[C@H](CO)NC(=O)[C@H](Cc1ccc(O)cc1)NC(=O)[C@H](CC(=O)O)NC(=O)[C@H](CO)NC(=O)[C@@H](NC(=O)[C@H](Cc1ccccc1)NC(=O)[C@@H](NC(=O)CNC(=O)[C@H](CCC(N)=O)NC(=O)C(C)(C)NC(=O)[C@@H](N)Cc1ccc(O)cc1)[C@@H](C)O)[C@@H](C)O)C(C)C)C(=O)N[C@@H](CO)C(=O)N[C@@H](C)C(N)=O [Compound 6] (HELM PEPTIDE1{Y.[Aib].Q.G.T.F.T.S.D.Y.S.K.Y.L.D.S.K.A.A.R.D.F.V.E.W.L.L.S.A.[am]}$$$$V2.0)	0.32 nM
CC(C)C[C@H](NC(=O)[C@H](C)NC(=O)[C@H](CCCCN)NC(=O)[C@H](CO)NC(=O)[C@H](Cc1ccc(O)cc1)NC(=O)[C@H](CC(=O)O)NC(=O)[C@H](CO)NC(=O)[C@@H](NC(=O)[C@H](Cc1ccccc1)NC(=O)[C@@H](NC(=O)CNC(=O)[C@H](CCC(N)=O)NC(=O)C(C)(C)NC(=O)[C@@H](N)Cc1ccc(O)cc1)[C@@H](C)O)[C@@H](C)O)C(=O)N[C@@H](CC(=O)O)C(=O)N[C@@H](CO)C(=O)N[C@@H](CCCCN)C(=O)N[C@@H](C)C(=O)N[C@@H](C)C(=O)N[C@@H](Cc1c[nH]cn1)C(=O)N[C@@H](CC(=O)O)C(=O)N[C@@H](Cc1ccccc1)C(=O)N[C@H](C(=O)N[C@@H](CCC(=O)O)C(=O)N[C@@H](Cc1c[nH]c2ccccc12)C(=O)N[C@@H](CC(C)C)C(=O)N[C@@H](CC(C)C)C(=O)N[C@@H](CO)C(=O)N[C@@H](C)C(N)=O)C(C)C [Compound 7] (HELM PEPTIDE1{Y.[Aib].Q.G.T.F.T.S.D.Y.S.K.A.L.D.S.K.A.A.H.D.F.V.E.W.L.L.S.A.[am]}$$$$V2.0)	0.5 nM
CC[C@H](C)[C@H](NC(=O)[C@H](CO)NC(=O)[C@H](Cc1ccc(O)cc1)NC(=O)[C@H](CC(=O)O)NC(=O)[C@H](CO)NC(=O)[C@@H](NC(=O)[C@H](Cc1ccccc1)NC(=O)[C@@H](NC(=O)CNC(=O)[C@H](CCC(N)=O)NC(=O)C(C)(C)NC(=O)[C@@H](N)Cc1ccc(O)cc1)[C@@H](C)O)[C@@H](C)O)C(=O)N[C@@H](Cc1ccc(O)cc1)C(=O)N[C@@H](CC(C)C)C(=O)N[C@@H](CC(=O)O)C(=O)N[C@@H](CO)C(=O)N[C@@H](CCCCN)C(=O)N[C@@H](C)C(=O)N[C@@H](C)C(=O)N[C@@H](Cc1c[nH]cn1)C(=O)N[C@@H](CC(=O)O)C(=O)N[C@@H](Cc1ccccc1)C(=O)N[C@H](C(=O)N[C@@H](CC(N)=O)C(=O)N[C@@H](Cc1c[nH]c2ccccc12)C(=O)N[C@@H](CC(C)C)C(=O)N[C@@H](CC(C)C)C(=O)N[C@@H](CO)C(=O)N[C@@H](C)C(N)=O)C(C)C [Compound 11] (HELM PEPTIDE1{Y.[Aib].Q.G.T.F.T.S.D.Y.S.I.Y.L.D.S.K.A.A.H.D.F.V.N.W.L.L.S.A.[am]}$$$$V2.0)	0.25 nM
CC[C@H](C)[C@H](NC(=O)[C@H](CO)NC(=O)[C@H](Cc1ccc(O)cc1)NC(=O)[C@H](CC(=O)O)NC(=O)[C@H](CO)NC(=O)[C@@H](NC(=O)[C@H](Cc1ccccc1)NC(=O)[C@@H](NC(=O)CNC(=O)[C@H](CCC(N)=O)NC(=O)C(C)(C)NC(=O)[C@@H](N)Cc1ccc(O)cc1)[C@@H](C)O)[C@@H](C)O)C(=O)N[C@@H](Cc1ccc(O)cc1)C(=O)N[C@@H](CC(C)C)C(=O)N[C@@H](CC(=O)O)C(=O)N[C@@H](CO)C(=O)N[C@@H](CCCCN)C(=O)N[C@@H](C)C(=O)N[C@@H](C)C(=O)N[C@@H](CCCCN)C(=O)N[C@@H](CC(=O)O)C(=O)N[C@@H](Cc1ccccc1)C(=O)N[C@H](C(=O)N[C@@H](CCC(=O)O)C(=O)N[C@@H](Cc1c[nH]c2ccccc12)C(=O)N[C@@H](CC(C)C)C(=O)N[C@@H](CC(C)C)C(=O)N[C@@H](CO)C(=O)N[C@@H](C)C(N)=O)C(C)C [Compound 10] (HELM PEPTIDE1{Y.[Aib].Q.G.T.F.T.S.D.Y.S.I.Y.L.D.S.K.A.A.K.D.F.V.E.W.L.L.S.A.[am]}$$$$V2.0)	0.2 nM

same assay, conditions: Table 2b (most comprehensive data); average EC50; cAMP in HEK293 cells expressing human GIP R; read-out: GIP R (EC50 in nM)

SMILES	EC50
CCCCCCCCCCCCCCCC(=O)N[C@@H](CCC(=O)NCCCC[C@H](NC(=O)[C@H](CCCCN)NC(=O)[C@H](CCC(=O)O)NC(=O)[C@H](CC(C)C)NC(=O)[C@H](Cc1ccc(O)cc1)NC(=O)[C@@H](NC(=O)[C@H](CO)NC(=O)[C@H](Cc1ccc(O)cc1)NC(=O)[C@H](CC(=O)O)NC(=O)[C@H](CO)NC(=O)[C@@H](NC(=O)[C@H](Cc1ccccc1)NC(=O)[C@@H](NC(=O)CNC(=O)[C@H](CCC(N)=O)NC(=O)C(C)(C)NC(=O)[C@@H](N)Cc1ccc(O)cc1)[C@@H](C)O)[C@@H](C)O)[C@@H](C)CC)C(=O)N[C@@H](C)C(=O)N[C@@H](C)C(=O)N[C@@H](CCCCN)C(=O)N[C@@H](CCC(=O)O)C(=O)N[C@@H](Cc1ccccc1)C(=O)N[C@H](C(=O)N[C@@H](CCC(=O)O)C(=O)N[C@@H](Cc1c[nH]c2ccccc12)C(=O)N[C@@H](CC(C)C)C(=O)N[C@@H](CC(C)C)C(=O)N[C@@H](CO)C(=O)N[C@@H](C)C(=O)NCC(=O)N1CCC[C@H]1C(=O)N[C@@H](CO)C(=O)N[C@@H](CO)C(=O)NCC(=O)N[C@@H](C)C(=O)N1CCC[C@H]1C(=O)N1CCC[C@H]1C(=O)N1CCC[C@H]1C(=O)N[C@@H](CO)C(N)=O)C(C)C)C(=O)O [Compound 32] (HELM PEPTIDE1{Y.[Aib].Q.G.T.F.T.S.D.Y.S.I.Y.L.E.K.K.A.A.K.E.F.V.E.W.L.L.S.A.G.P.S.S.G.A.P.P.P.S.[am]}|PEPTIDE2{[CCCCCCCCCCCCCCCC(=O)[*:2]].[gGlu]}$PEPTIDE1,PEPTIDE2,17:R3-2:R2$$$V2.0)	0.04 nM
CCCCCCCCCCCCCCCC(=O)N[C@@H](CCC(=O)NCCCC[C@H](NC(=O)[C@H](CO)NC(=O)[C@H](CC(=O)O)NC(=O)[C@H](CC(C)C)NC(=O)[C@H](Cc1ccc(O)cc1)NC(=O)[C@@H](NC(=O)[C@H](CO)NC(=O)[C@H](Cc1ccc(O)cc1)NC(=O)[C@H](CC(=O)O)NC(=O)[C@H](CO)NC(=O)[C@@H](NC(=O)[C@H](Cc1ccccc1)NC(=O)[C@@H](NC(=O)CNC(=O)[C@H](CCC(N)=O)NC(=O)C(C)(C)NC(=O)[C@@H](N)Cc1ccc(O)cc1)[C@@H](C)O)[C@@H](C)O)[C@@H](C)CC)C(=O)N[C@@H](C)C(=O)N[C@@H](C)C(=O)N[C@@H](Cc1c[nH]cn1)C(=O)N[C@@H](CC(=O)O)C(=O)N[C@@H](Cc1ccccc1)C(=O)N[C@H](C(=O)N[C@@H](CCC(=O)O)C(=O)N[C@@H](Cc1c[nH]c2ccccc12)C(=O)N[C@@H](CC(C)C)C(=O)N[C@@H](CC(C)C)C(=O)N[C@@H](CCCNC(=N)N)C(=O)N[C@@H](C)C(N)=O)C(C)C)C(=O)O [Compound 27] (HELM PEPTIDE1{Y.[Aib].Q.G.T.F.T.S.D.Y.S.I.Y.L.D.S.K.A.A.H.D.F.V.E.W.L.L.R.A.[am]}|PEPTIDE2{[CCCCCCCCCCCCCCCC(=O)[*:2]].[gGlu]}$PEPTIDE1,PEPTIDE2,17:R3-2:R2$$$V2.0)	0.099 nM
CCCCCCCCCCCCCCCC(=O)N[C@@H](CCC(=O)NCCCC[C@H](NC(=O)[C@H](CO)NC(=O)[C@H](Cc1ccc(O)cc1)NC(=O)[C@H](CC(=O)O)NC(=O)[C@H](CO)NC(=O)[C@@H](NC(=O)[C@H](Cc1ccccc1)NC(=O)[C@@H](NC(=O)CNC(=O)[C@H](CCC(N)=O)NC(=O)C(C)(C)NC(=O)[C@@H](N)Cc1ccc(O)cc1)[C@@H](C)O)[C@@H](C)O)C(=O)N[C@@H](Cc1ccc(O)cc1)C(=O)N[C@@H](CC(C)C)C(=O)N[C@@H](CCC(=O)O)C(=O)N[C@@H](CCCCN)C(=O)N[C@@H](CCCCN)C(=O)N[C@@H](C)C(=O)N[C@@H](C)C(=O)N[C@@H](CCCCN)C(=O)N[C@@H](CCC(=O)O)C(=O)N[C@@H](Cc1ccccc1)C(=O)N[C@H](C(=O)N[C@@H](CCC(=O)O)C(=O)N[C@@H](Cc1c[nH]c2ccccc12)C(=O)N[C@@H](CC(C)C)C(=O)N[C@@H](CC(C)C)C(=O)N[C@@H](CO)C(=O)N[C@@H](C)C(N)=O)C(C)C)C(=O)O [Compound 25] (HELM PEPTIDE1{Y.[Aib].Q.G.T.F.T.S.D.Y.S.K.Y.L.E.K.K.A.A.K.E.F.V.E.W.L.L.S.A.[am]}|PEPTIDE2{[CCCCCCCCCCCCCCCC(=O)[*:2]].[gGlu]}$PEPTIDE1,PEPTIDE2,12:R3-2:R2$$$V2.0)	0.19 nM
